The text below walks through data of US12172988B2, “Anticancer and antifungal splice modulators” (priority 2021, dated 2024).

For data set [1] the following is noted: estimated, based on E7107; cited from earlier work.
The next data set has as its system PLK-1. Kind of data set: qPCR splicing analysis, PLK-1 exon skipping / RNA expression. As to conditions: HCT116, 4 h, 20 times GI50, qPCR. It counts as cell-based, human. The protocol: (§1) HCT116 tumor cells were treated with each analogue at 20 times the G150 value (Table 12) for 4 hours and then cellular RNA was isolated and purified for qPCR. Primers were designed to evaluate intron retention or exon skipping, direct responses to splice modulator treatment. Genes evaluated included those involved in splicing regulation (SF3A1, SF3A3, SF3B1, SF3B2), apoptosis (MCL-1L), protein folding (DNAJB1), and cell cycle regulation (AURKA, PLK-1) relative to the unspliced control GAPDH. For alternative splicing regulator (SF2), primers were designed to evaluate gene expression, which changes in response splice modulator treatment for SF2 relative to the unspliced control GAPDH. (−) denotes untreated cells.
(§2) Next, we turned our efforts to explore the ability of these analogues to modulate splicing. […] We treated cells for 4 h so that we could evaluate early changes in splicing activity, and then cellular RNA was isolated and purified for analyses by qPCR (FIG. 14). Most importantly, none of the concentrations tested led to significant changes in cell viability, ensuring that changes in gene expression were not due to cell death.
(§3) For these studies, we evaluated the expression of genes involved in splicing regulation (SF3A1, SF3A3, SF3B1, SF3B2), apoptosis (MCL-1L), protein folding (DNAJB1), and cell cycle regulation (AURKA, PLK-1) relative to the unspliced control GAPDH. Primers were designed to evaluate intron retention or exon skipping, direct responses to splice modulator treatment. The master splicing regulator alternative splicing factor (SF2) was also evaluated, with the primers for this gene designed to evaluate overall gene expression, which changes in response to splice modulator treatment.
(§4) From this 4 h study (FIG. 14), a small set of analogs (1, 1b, 1g, 1d, 1e, 1i and 1j) were selected to evaluate if effects on splicing when presented for a longer 24 h period. […] Using identical procedures as that used for 4 h, HCT116 cells were treated with three concentrations (100 nM, 250 nM and 500 nM) of each analog for 24 h. Multiple concentrations were used as a means to check further validate the use of the GI50 concentration in our prior study (FIG. 14). As before, none of the concentrations tested led to significant changes in cell viability over the 24-hour time window, ensuring that changes in gene expression were not due to cell death.
Cells were treated with 1 or 1a-1j in media (McCoy's 5a (Life Technologies) supplemented with 10% FBS, 2 mM L-glutamine, and 100 U mL^−1 of penicillin and 100 μg mL^−1 of streptomycin 0.5% DMSO) for 4 h or 24 h. Untreated cells were considered were used as negative control. Total RNA was isolated using mirVana miRNA isolation kit (Life Technologies). A 1 μg sample of RNA was subjected to DNAseI from a TURBO DNA free kit (Life Technologies). […] The amount of unspliced RNA for different genes was determined using Power SYBR Green PCR master mix (Applied Biosystems) by qPCR using specific primers for each gene. qPCR using 2.5 μM of each primer was performed on 5 ng of the obtained cDNA. qPCR conditions were as follows: 95° C. for 10 min for one cycle, then 95° C. for 10 min for one cycle, then 95° C. for 30 s, 55° C. for 60 s, 72° C. for 60 s, for 40 cycles using the MXPro. Quantification cycle (Cq) values were identified for each sample, and then RNA levels were calculated using 2-ΔΔCT method. […] Namely, all genes explored in this study were evaluated from the same cell cultures. […]

A further data set deals with HCT116 tumor cells. The experiment in a line: qPCR structure-splicing profile over the gene panel. It counts as cell-based, human. The conditions noted are these: HCT116, 24 h, 100, 250, 500 nM, compared to 1. Here is the method:
as §1, with “analogues” for “each analogue”, “100 nM (light grey), 250 nM (grey), or 500 nM (black)” for “20 times the G150 value (Table 12)”, “24 h” for “4 hours”, “(MCL-1L), and” for “(MCL-1L),”, “(DNAJB1),” for “(DNAJB1), and cell cycle regulation (AURKA, PLK-1)”, “(—)” for “(−)”
as §3, §4
(§5) Cells were treated with 1 or 1a-1j in media (McCoy's 5a (Life Technologies) supplemented with 10% FBS, 2 mM L-glutamine, and 100 U mL^−1 of penicillin and 100 μg mL^−1 of streptomycin 0.5% DMSO) for 4 h or 24 h. Untreated cells were considered were used as negative control. Total RNA was isolated using mirVana miRNA isolation kit (Life Technologies). A 1 μg sample of RNA was subjected to DNAseI from a TURBO DNA free kit (Life Technologies). The cDNA was prepared by using SuperScript III reverse transcriptase kit (Life Technologies). The amount of unspliced RNA for different genes was determined using Power SYBR Green PCR master mix (Applied Biosystems) by qPCR using specific primers for each gene. qPCR using 2.5 μM of each primer was performed on 5 ng of the obtained cDNA. qPCR conditions were as follows: 95° C. for 10 min for one cycle, then 95° C. for 10 min for one cycle, then 95° C. for 30 s, 55° C. for 60 s, 72° C. for 60 s, for 40 cycles using the MXPro. Quantification cycle (Cq) values were identified for each sample, and then RNA levels were calculated using 2-ΔΔCT method. GAPDH was used as a control for normalization. At least three replicates were conducted for each compound. Namely, all genes explored in this study were evaluated from the same cell cultures. Here, individual cultures were used for each compound explored and at least three replicates were used for each compound. While experimental variation occurred between the different compound treatments, the levels of the different intron retention, exon skipping or RNA expression were collected from the same cellular material. Statistics were calculated using a standard one-way ANOVA; p values were represented so that * signifies p<0.0001. HCT116 were treated with analogs 1-1j ranging from 0.1-5000 nM for 72 hours, then cell viability was measured using the MTS assay. GI50 values and confidence intervals were calculated using GraphPad (Table 12).

For a further data set, the system named is SF2. The experiment in a line: qPCR gene expression of alternative splicing factor SF2. It counts as cell-based, human. The conditions noted are these: HCT116, 4 h, 20 times GI50, qPCR. The protocol:
as §1
as §1, with “analogues” for “each analogue”, “100 nM (light grey), 250 nM (grey), or 500 nM (black)” for “20 times the G150 value (Table 12)”, “24 h” for “4 hours”, “(MCL-1L), and” for “(MCL-1L),”, “(DNAJB1),” for “(DNAJB1), and cell cycle regulation (AURKA, PLK-1)”, “(—)” for “(−)”
as §2, §3
From this 4 h study (FIG. 14), a small set of analogs (1, 1b, 1g, 1d, 1e, 1i and 1j) were selected to evaluate if effects on splicing when presented for a longer 24 h period. […] Using identical procedures as that used for 4 h, HCT116 cells were treated with three concentrations (100 nM, 250 nM and 500 nM) of each analog for 24 h. […]

Data set [2] has as its system HCT116 colorectal carcinoma cells. Kind of data set: MTS cell viability / cell growth inhibition assay. It counts as cell-based, human. The conditions noted are these: HCT-116 cells. Here is the method: With milligram quantities of 1a-1i at hand, we began our studies to evaluate the relative efficacy of each analogue using cell growth inhibition studies in HCT116 colorectal carcinoma cells. As reported in FIG. 3, GI50 values were collected for each analog after a 72 h treatment using the MTS cell viability assay (Table 12). Under these conditions, the natural FD-895 (1), 3S-FD-895 (1a) 17S-FD-895 (1d), 17-methoxy-FD-895 (1e) provided activities of <10 nM.
HCT-116 cells was cultured in McCoy's 5a (Life Technologies) supplemented with 10% fetal bovine serum (FBS), 2 mM L-glutamine, and 100 U mL^−1 of penicillin and 100 μg mL^−1 of streptomycin at 37° C. in an atmosphere of 5% CO2. Compounds were dissolved in DMSO (MilliporeSigma). Cells were treated with 1-1j in media with ≥0.5% DMSO for 4-72 h.
Studies were conducted in […] cell culture plates. HCT-116 plated at 5×10^3 cells/well were cultured for 24 h and then treated with analogs 1-1j for 4-72 h, then washed twice with 100 μL PBS. PBS (100 μL) was added to each well, followed by 20 μL of CellTiter Aqueous One Solution (Promega). After 2 h at 37° C., absorbance readings were taken at 490 nm (test wavelength) and 690 nm (reference wavelength). GI50 values were calculated in Prism (GraphPad) using greater 3 replicates.
as §5

On to `CCC(OC)C(C)C1OC1C(O)C(C)/C=C/C=C(\C)C1OC(=O)CC(O)CCC(C)(O)C(OC(C)=O)/C=C/C1C` (centres unmarked) [Analog 1, FD-895, reference compound], for which the “human maximum tolerated dose (MTD)” value in data set [1] is recorded as 4 mg/m^2. The “effect on exon 3 inclusion in PLK-1” value in the data set on PLK-1 is on record as “most potent effect”. Moreover, in the data set with HCT116 tumor cells, the “splicing activity over the genes tested” value is “altered the splicing of many of the genes tested”. Also, the “down regulating the expression of SF2 RNA” value in the data set with SF2 is recorded as “highest efficacy”. Besides, the “cell growth inhibitory activity compared to FD-895” value in data set [2] is “potent cell growth inhibitor”.
